Experimental data as given in patent US4421912A, “Cephalosporin derivatives” (Takeda Chemical Industries, Ltd., priority 1973, dated 1983).
≈ marks a conversion by molar mass, not a printed value. Like-named read-outs stand apart in the source and are kept apart here.

Legend:
[1] = test system: E. coli 0-111; assay: Antibacterial spectra, agar dilution method; assay type: cell-based; conditions: Escherichia coli, 0111, E. coli 0-111, Table 11
Text: (§1) (mcg/ml., agar dilution method)
as §1
(§2) (mcg/ml, agar dilution method)
(§3) (mcg./ml., agar dilution method)

[2] = test system: E. coli NIHJ JC-2; assay: Antibacterial spectra, agar dilution method; assay type: cell-based; conditions: Escherichia coli
Text: as §1, §1, §2, §3

[3] = test system: S. aureus 1840; assay: Antibacterial spectra, agar dilution method; assay type: cell-based
Text: as §1, §1, §2, §3

[4] = test system: S. aureus 209P; assay: Antibacterial spectra, agar dilution method; assay type: cell-based; conditions: Staphylococcus aureus, 209P, read-out: Antibacterial spectra, S. aureus 209P, Table 11
Text: as §1, §1, §2, §3

[5] = test system: E. coli T-7; assay: Antibacterial spectra, agar dilution method; assay type: cell-based; conditions: Escherichia coli
Text: (§4) |(mcg./ml., agar dilution method)

[6] = test system: P. vulgaris IFO 3988; assay: Antibacterial spectra, agar dilution method; assay type: cell-based; conditions: Proteus vulgaris
Text: as §4

[7] = test system: K. pneumoniae DT; assay: Antibacterial spectra, agar dilution method; assay type: cell-based; conditions: Klebsiella pneumoniae, Table 11
[8] = test system: P. morganii Eb53; assay: Antibacterial spectra, agar dilution method; assay type: cell-based; conditions: Morganella morganii
Text: as §2, §3

[9] = test system: Escherichia coli 0111; assay: Protective Effect on Infected Mice; assay type: in vivo; conditions: Escherichia coli, 0111, sc, 168 h, male ICR/SLC mice, i.p. E. coli 0111, single subcutaneous dose immediately after challenge, 7 days
Text: Protective Effect (ED50 * , mg/kg) on Infected Mice
*Test animals: male mice (ICR/SLC) 5 mice per group per single dose
Infection: intraperitoneally with Escherichia coli 0111
Administration: a single subcutaneous dose immediately after challenge
Observation period: 7 days
*Test animals: male mice (ICR/SLC) 5 mice per group single dose

[10] = NIHJJC2, read-out: Antibacterial spectra, E. coli NIHJ JC-2, Table 11
[11] = Staphylococcus aureus, S. aureus 1840, Table 11, read-out: Antibacterial spectra
[12] = T7, E. coli T-7, agar dilution method, Table 11, read-out: Antibacterial spectra
[13] = IFO3988, P. vulgaris IFO 3988, agar dilution method, Table 11, read-out: Antibacterial spectra
[14] = EB53, read-out: Antibacterial spectra
[15] = Staphylococcus aureus, 1840, read-out: Antibacterial spectra, S. aureus 1840, Table 11
[16] = T7, read-out: Antibacterial spectra
[17] = IFO3988, read-out: Antibacterial spectra
[18] = NIHJJC2, E. coli NIHJ JC-2, Table 11, read-out: Antibacterial spectra
[19] = Table 12, read-out: Protective Effect (ED50) on Infected Mice
[20] = P. morganii Eb53, agar dilution method, Table 11, read-out: Antibacterial spectra

Structure (SMILES)	MIC [1]	MIC [2, 10]	MIC [3, 11]	MIC [4]	MIC [5, 12]	MIC [6, 13]	MIC [7]	MIC [8, 14]	MIC [3, 15]	MIC [5, 16]	MIC [6, 17]	MIC [2, 18]	ED50 [9, 19]	MIC [8, 20]	ED50 ([9]; Table 13, read-out: ED50)	ED50 ([9]; Table 14, read-out: ED50)
CN(C)CC(=O)Nc1nnc(SCC2=C(C(=O)O)N3C(=O)C(NC(=O)Cc4csc(N)n4)C3SC2)s1 (centres unmarked) [Compound 7]	≤ 0.2 µg/mL	0.78 µg/mL (≈ 1.37 µM)	3.13 µg/mL (≈ 5.48 µM)	0.78 µg/mL (≈ 1.37 µM)	25 µg/mL (≈ 43.8 µM)	0.39 µg/mL (≈ 0.683 µM)	≤ 0.2 µg/mL	12.5 µg/mL (≈ 21.9 µM)								
CN(C)C(=O)Cc1nnc(SCC2=C(C(=O)[O-])N3C(=O)C(NC(=O)Cc4csc(N)n4)[C@H]3SC2)s1.[Na+] (some centres unmarked) [Compound 8, sodium 7-[2-(2-aminothiazol-4-yl)acetamido]-3-[2-(N,N-dimethylcarbamoylmethyl)-1,3,4-thiadiazol-5-yl]thiomethyl-3-cephem-4-carboxylate]	≤ 0.2 µg/mL	0.78 µg/mL		0.39 µg/mL			≤ 0.2 µg/mL	< 0.2 µg/mL	0.78 µg/mL	12.5 µg/mL	0.39 µg/mL					
CN(C)CCSc1nnc(SCC2=C(C(=O)O)N3C(=O)C(NC(=O)Cc4csc(N)n4)C3SC2)s1 (centres unmarked) [Compound 9]	0.39 µg/mL (≈ 0.68 µM)			≤ 0.2 µg/mL	50 µg/mL (≈ 87.1 µM)		≤ 0.2 µg/mL	< 0.2 µg/mL	0.78 µg/mL (≈ 1.36 µM)		6.25 µg/mL (≈ 10.9 µM)	1.56 µg/mL (≈ 2.72 µM)	0.812 mg/kg			
CC(=O)OCCSc1nnc(SCC2=C(C(=O)[O-])N3C(=O)C(NC(=O)Cc4csc(N)n4)[C@H]3SC2)s1.[Na+] (some centres unmarked) [Compound 11, sodium 7-[2-(2-aminothiazol-4-yl)acetamido]-3-[2-(2-acetoxyethylthio)-1,3,4-thiadiazol-5-yl]thiomethyl-3-cephem-4-carboxylate]													< 0.625 mg/kg			
Nc1nc(CC(=O)NC2C(=O)N3C(C(=O)O)=C(CSc4nnc(SCCS(=O)(=O)O)s4)CSC23)cs1 (centres unmarked) [Compound 12]	≤ 0.2 µg/mL	0.78 µg/mL (≈ 1.28 µM)		0.39 µg/mL (≈ 0.639 µM)	50 µg/mL (≈ 81.9 µM)	≤ 0.2 µg/mL	≤ 0.2 µg/mL		1.56 µg/mL (≈ 2.55 µM)					25 µg/mL (≈ 40.9 µM)	< 0.625 mg/kg	
Nc1nc(CC(=O)NC2C(=O)N3C(C(=O)O)=C(CSc4nnc(SCC(=O)O)s4)CSC23)cs1 (centres unmarked) [Compound 15]	≤ 0.2 µg/mL	0.78 µg/mL (≈ 1.39 µM)		0.78 µg/mL (≈ 1.39 µM)	25 µg/mL (≈ 44.6 µM)	≤ 0.2 µg/mL	≤ 0.2 µg/mL		1.56 µg/mL (≈ 2.78 µM)					3.13 µg/mL (≈ 5.58 µM)	< 0.625 mg/kg	
NC(=O)CSc1nnc(SCC2=C(C(=O)[O-])N3C(=O)C(NC(=O)Cc4csc(N)n4)[C@H]3SC2)s1.[Na+] (some centres unmarked) [Compound 16, sodium 7-[2-(2-aminothiazol-4-yl)acetamido]-3-(2-carbamoylmethylthio-1,3,4-thiadiazol-5-yl)thiomethyl-3-cephem-4-carboxylate]	≤ 0.2 µg/mL	0.39 µg/mL		≤ 0.2 µg/mL		≤ 0.2 µg/mL	≤ 0.2 µg/mL	1.56 µg/mL	0.78 µg/mL	12.5 µg/mL					< 0.625 mg/kg	
Nc1nc(CC(=O)NC2C(=O)N3C(C(=O)O)=C(CSc4nnc(NCCO)s4)CSC23)cs1 (centres unmarked) [Compound 17]	≤ 0.2 µg/mL	0.39 µg/mL (≈ 0.736 µM)	3.13 µg/mL (≈ 5.91 µM)	0.39 µg/mL (≈ 0.736 µM)		0.39 µg/mL (≈ 0.736 µM)	≤ 0.2 µg/mL	0.78 µg/mL (≈ 1.47 µM)		12.5 µg/mL (≈ 23.6 µM)					< 0.625 mg/kg	
CN(C)CCNc1nnc(SCC2=C(C(=O)O)N3C(=O)C(NC(=O)Cc4csc(N)n4)C3SC2)s1 (centres unmarked) [Compound 18]	≤ 0.2 µg/mL	0.78 µg/mL (≈ 1.4 µM)	3.13 µg/mL (≈ 5.62 µM)	1.56 µg/mL (≈ 2.8 µM)		1.56 µg/mL (≈ 2.8 µM)	≤ 0.2 µg/mL	1.56 µg/mL (≈ 2.8 µM)		6.25 µg/mL (≈ 11.2 µM)					< 0.625 mg/kg	
Nc1nc(CC(=O)NC2C(=O)N3C(C(=O)O)=C(CSc4nnc(CC(=O)O)s4)CSC23)cs1 (centres unmarked) [Compound 19, disodium 7-[2-(2-aminothiazol-4-yl)acetamido]-3-(2-carboxymethyl-1,3,4-thiadiazol-5-yl)thiomethyl-3-cephem-4-carboxylate]	≤ 0.2 µg/mL	0.78 µg/mL	3.13 µg/mL	0.78 µg/mL	25 µg/mL	≤ 0.2 µg/mL	≤ 0.2 µg/mL	0.78 µg/mL					< 0.625 mg/kg			
Nc1nc(CC(=O)NC2C(=O)N3C(C(=O)O)=C(CSc4nnc(NCCS(=O)(=O)O)s4)CSC23)cs1 (centres unmarked) [Compound 22]	≤ 0.2 µg/mL	0.78 µg/mL (≈ 1.31 µM)	3.13 µg/mL (≈ 5.27 µM)	0.78 µg/mL (≈ 1.31 µM)	25 µg/mL (≈ 42.1 µM)	≤ 0.2 µg/mL	≤ 0.2 µg/mL	0.78 µg/mL (≈ 1.31 µM)								
CC(=O)CSc1nnc(SCC2=C(C(=O)O)N3C(=O)C(NC(=O)Cc4csc(N)n4)C3SC2)s1 (centres unmarked) [Compound 23]	0.39 µg/mL (≈ 0.698 µM)			≤ 0.2 µg/mL	25 µg/mL (≈ 44.7 µM)	0.39 µg/mL (≈ 0.698 µM)	≤ 0.2 µg/mL		0.78 µg/mL (≈ 1.4 µM)			1.56 µg/mL (≈ 2.79 µM)		3.13 µg/mL (≈ 5.6 µM)		
CSCc1nnc(SCC2=C(C(=O)O)N3C(=O)C(NC(=O)Cc4csc(N)n4)C3SC2)s1 (centres unmarked) [Compound 24]	0.39 µg/mL (≈ 0.735 µM)			≤ 0.2 µg/mL	25 µg/mL (≈ 47.1 µM)	0.39 µg/mL (≈ 0.735 µM)	≤ 0.2 µg/mL		0.78 µg/mL (≈ 1.47 µM)			1.56 µg/mL (≈ 2.94 µM)		25 µg/mL (≈ 47.1 µM)		
CS(=O)(=O)Cc1nnc(SCC2=C(C(=O)O)N3C(=O)C(NC(=O)Cc4csc(N)n4)C3SC2)s1 (centres unmarked) [Compound 25]	≤ 0.2 µg/mL	0.39 µg/mL (≈ 0.693 µM)		0.39 µg/mL (≈ 0.693 µM)	100 µg/mL (≈ 178 µM)	0.39 µg/mL (≈ 0.693 µM)	≤ 0.2 µg/mL		0.78 µg/mL (≈ 1.39 µM)					25 µg/mL (≈ 44.4 µM)		
CN(C)CCn1nnnc1SCC1=C(C(=O)O)N2C(=O)C(NC(=O)Cc3csc(N)n3)C2SC1 (centres unmarked) [Compound 28]	≤ 0.2 µg/mL	0.39 µg/mL (≈ 0.742 µM)		0.39 µg/mL (≈ 0.742 µM)	3.13 µg/mL (≈ 5.95 µM)	0.78 µg/mL (≈ 1.48 µM)	≤ 0.2 µg/mL	≤ 0.2 µg/mL	1.56 µg/mL (≈ 2.97 µM)							
NC(=O)Cn1nnnc1SCC1=C(C(=O)O)N2C(=O)C(NC(=O)Cc3csc(N)n3)C2SC1 (centres unmarked) [Compound 29]	≤ 0.2 µg/mL	0.39 µg/mL (≈ 0.762 µM)		0.78 µg/mL (≈ 1.52 µM)	3.13 µg/mL (≈ 6.12 µM)	≤ 0.2 µg/mL	≤ 0.2 µg/mL	≤ 0.2 µg/mL	1.56 µg/mL (≈ 3.05 µM)							
Nc1nc(CC(=O)NC2C(=O)N3C(C(=O)O)=C(CSc4nc(CC(=O)O)cs4)CSC23)cs1 (centres unmarked) [Compound 30]	0.39 µg/mL (≈ 0.739 µM)			0.39 µg/mL (≈ 0.739 µM)	100 µg/mL (≈ 190 µM)	0.2 µg/mL (≈ 0.379 µM)	< 0.05 µg/mL		1.56 µg/mL (≈ 2.96 µM)			1.56 µg/mL (≈ 2.96 µM)		50 µg/mL (≈ 94.8 µM)		
Cn1c(N)nnc1SCC1=C(C(=O)O)N2C(=O)C(NC(=O)Cc3csc(N)n3)C2SC1 (centres unmarked) [Compound 31]	≤ 0.1 µg/mL	0.2 µg/mL (≈ 0.414 µM)		0.78 µg/mL (≈ 1.62 µM)	3.13 µg/mL (≈ 6.49 µM)	0.2 µg/mL (≈ 0.414 µM)	≤ 0.1 µg/mL	1.56 µg/mL (≈ 3.23 µM)	1.56 µg/mL (≈ 3.23 µM)							
Cc1cnc(SCC2=C(C(=O)O)N3C(=O)C(NC(=O)Cc4csc(N)n4)C3SC2)nc1N (centres unmarked) [Compound 32]	0.78 µg/mL (≈ 1.58 µM)			0.2 µg/mL (≈ 0.405 µM)	50 µg/mL (≈ 101 µM)	0.78 µg/mL (≈ 1.58 µM)	0.39 µg/mL (≈ 0.79 µM)		1.56 µg/mL (≈ 3.16 µM)			1.56 µg/mL (≈ 3.16 µM)		100 µg/mL (≈ 203 µM)		
Cn1cnnc1SCC1=C(C(=O)O)N2C(=O)C(NC(=O)Cc3csc(N)n3)C2SC1 (centres unmarked) [Compound 39]	< 0.05 µg/mL	0.2 µg/mL (≈ 0.428 µM)		0.78 µg/mL (≈ 1.67 µM)	25 µg/mL (≈ 53.5 µM)		0.1 µg/mL (≈ 0.214 µM)		1.56 µg/mL (≈ 3.34 µM)					25 µg/mL (≈ 53.5 µM)		0.73 mg/kg
Cc1nnc(SCC2=C(C(=O)O)N3C(=O)C(NC(=O)Cc4csc(N)n4)C3SC2)n1C (centres unmarked) [Compound 42]	0.1 µg/mL (≈ 0.208 µM)	0.2 µg/mL (≈ 0.415 µM)		0.39 µg/mL (≈ 0.81 µM)			0.1 µg/mL (≈ 0.208 µM)	1.56 µg/mL (≈ 3.24 µM)	1.56 µg/mL (≈ 3.24 µM)							0.38 mg/kg
